For series [1], the system named is Staphylococcus aureus ATCC 6538. Set-up: method as in PMID 27025339. The settings on record: reference fluoroquinolones, cited from earlier work; for MIC (μmol), S. Aureus (ATCC 6538): value in parentheses.
The test system of series [2] is Pseudomonas aeruginosa ATCC 15692. The arrangement: method as in PMID 27025339. The settings on record: reference fluoroquinolones, cited from earlier work; for MIC (μmol), P. Aeruginosa (ATCC 15692): value in parentheses.
In series [3] the test system is Bacillus subtilis ATCC 6633. As to the kind of experiment: Antibacterial MIC, microdilution susceptibility test (CLSI). The format is cell-based. The conditions noted are these: Bacillus subtilis, ATCC6633, 24 h, Mueller–Hinton broth, 37 °C, 24 h; read-out: MIC, μg/mL ± SE, B. Subtilis (ATCC 6633). A digest of the protocol:
(§1)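 Broth microdilution per CLSI in Mueller–Hinton broth. Inoculum ~2.5–3 × 10^4 cells/mL, mixed 1:1 with compound (DMSO stocks diluted in water), incubated 37 °C for 24 h, growth read as absorbance at 620 nm. MIC from dose–response on selected compounds, at least two experiments in triplicate.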

In series [4] the test system is Escherichia coli ATCC 47076. The description is as above. The format is cell-based. A digest of the protocol:
as §1

Series [5] concerns Pseudomonas aeruginosa ATCC 15692. The series is described as above. The format is cell-based. A digest of the protocol: as §1
The test system of series [6] is Staphylococcus aureus ATCC 6538. The series is described as above. The format is cell-based. The conditions noted are these: Staphylococcus aureus, ATCC6538, 24 h, Mueller–Hinton broth, 37 °C, 24 h; read-out: MIC, μg/mL ± SE, S. Aureus (ATCC 6538). Summed up:
as §1

The subject of series [7] is Bacillus subtilis ATCC 6633. As to the kind of experiment: microbe, parasite or virus in culture. Set-up: species or system bacteria; Broth microdilution MIC in Mueller-Hinton broth, absorbance at 620 nm. The conditions noted are these: ATCC6633, 24 h, read-out: Observed MIC, uM (B. subtilis). A digest of the protocol:
(§2)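 Broth microdilution in Mueller–Hinton broth per CLSI, inoculum about 2.5–3 × 10^4 cells/mL mixed 1:1 with compound, 24 h at 37 °C. Growth read by absorbance at 620 nm; MIC from dose–response, at least two runs in triplicate.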

Series [8] relates to Staphylococcus aureus ATCC 6538. The series is described as follows: microbe, parasite or virus in culture. The conditions noted are these: ATCC6538, 24 h, read-out: Observed MIC, uM (S. aureus). Set-up: species or system bacteria; Broth microdilution MIC in Mueller-Hinton broth, absorbance at 620 nm. A digest of the protocol:
as §2

The mark [9] stands for this setting: ATCC47076, Mueller–Hinton broth, 37 °C, 24 h, read-out: MIC, μg/mL ± SE, E. Coli (ATCC 47076).
Where [10] appears, read: ATCC47076, value in parentheses, read-out: MIC (μmol), E. Coli (ATCC 47076) (converted).
[11] abbreviates: ATCC15692, Mueller–Hinton broth, 37 °C, 24 h, read-out: MIC, μg/mL ± SE, P. Aeruginosa (ATCC 15692).
Where [12] appears, read: ATCC15692, value in parentheses, read-out: MIC (μmol), P. Aeruginosa (ATCC 15692) (converted).

SMILES strings stand for the structures. ≈ marks a conversion by molar mass, not a printed value. Read-outs that look alike come from different tables or passages of the source.

Take `O=C(O)c1cn(C2CC2)c2cc(N3CCNCC3)c(F)cc2c1=O` [Ciprofloxacin]: in series [1], the “MIC, μg/mL ± SE, S. Aureus (ATCC 6538)” value is 1250.0 ± 9.6 µg/mL (≈ 3770 µM) and the “MIC (μmol), S. Aureus (ATCC 6538)” value is 3772.4 µmol. Besides, in series [2], the “MIC, μg/mL ± SE, P. Aeruginosa (ATCC 15692)” value was 4.8 ± 0.5 µg/mL (≈ 14.5 µM) and the “MIC (μmol), P. Aeruginosa (ATCC 15692)” value was 14.5 µmol.

In the case of `O=C(N[C@@H](Cc1ccccc1)C(=O)NC[C@H]1CN(c2ccc(N3CCOCC3)c(F)c2)C(=O)O1)c1cnccn1` [Compound 9c, N-((S)-1-((((S)-3-(3-Fluoro-4-morpholinophenyl)-2-oxooxazolidin-5-yl)methyl)amino) -1-oxo-3-phenylpropan-2-yl)pyrazine-2-carboxamide], the melting point (usually the temperature of the solid-liquid transition) lay in the range of 172 to 174 °C. The MIC in [3] amounted to 32 ± 0.5 µg/mL (≈ 58.3 µM). In series [4] (setting [9]), the MIC is 32 ± 1 µg/mL. In series [4] (setting [10]), the MIC is 58.3 µM. Moreover, the MIC in series [5] (setting [11]) amounted to 32 ± 0.8 µg/mL. Besides, in [5] (setting [12]), the MIC was 58.3 µM. Moreover, in series [6], the MIC is 32 ± 0.9 µg/mL (≈ 58.3 µM). In addition, the MIC in series [7] stood at 58.3 µM (≈ 32 µg/mL). In [8], the MIC was 58.3 µM (≈ 32 µg/mL).

Regarding `O=C1O[C@@H](CNCc2ccc(F)cc2F)CN1c1ccc(N2CCOCC2)c(F)c1` [Compound 11e, (S)-5-[{(2,4-Difluorobenzyl)amino}methyl]-3-(3-fluoro-4-morpholinophenyl) oxazolid-ine-2-one], the melting point lay in the range of 74 to 76 °C. Further, the MIC in series [3] is 32 ± 1.3 µg/mL (≈ 75.9 µM). The MIC in [4] (setting [9]) is 32 ± 0.3 µg/mL. Also, the MIC in series [4] (setting [10]) was 75.9 µM. Besides, in series [5] (setting [11]), the MIC amounted to 32 ± 0.5 µg/mL. Moreover, the MIC in series [5] (setting [12]) is 75.9 µM. Further, the MIC in series [6] is 32 ± 0.2 µg/mL (≈ 75.9 µM). For the same molecule, the MIC in series [7] turned out to be 75.9 µM (≈ 32 µg/mL). Further, the MIC in [8] came to 75.9 µM (≈ 32 µg/mL).

Molecule `O=C(CCCC[C@@H]1SC[C@@H]2NC(=O)N[C@@H]21)NC[C@H]1CN(c2ccc(N3CCOCC3)c(F)c2)C(=O)O1` [Compound 15, N-(((S)-3-(3-Fluoro-4-morpholinophenyl)-2-oxooxazolidin-5-yl)methyl)-5-((3aS, 4S, 6aR)-2-oxohexahydro-1H-thieno [3,4-d]imidazol-4-yl)pentanamide] registered a melting point of 222 to 224 °C. For the same molecule, the MIC in series [3] stood at 32 ± 0.2 µg/mL (≈ 61.3 µM). For the same molecule, the MIC in series [4] (setting [9]) is 32 ± 0.7 µg/mL. Also, the MIC in [4] (setting [10]) is 61.3 µM. The MIC in series [5] (setting [11]) was 32 ± 0.3 µg/mL. For the same molecule, the MIC in series [5] (setting [12]) is 61.3 µM. For the same molecule, in [6], the MIC amounted to 32 ± 0.4 µg/mL (≈ 61.3 µM). In addition, in [7], the MIC was 61.3 µM (≈ 32 µg/mL). Also, the MIC in series [8] worked out at 61.3 µM (≈ 32 µg/mL).

With `CCn1cc(C(=O)O)c(=O)c2cc(F)c(N3CCNCC3)cc21` [Norfloxacin], in series [1], the “MIC, μg/mL ± SE, S. Aureus (ATCC 6538)” value was 1250.0 ± 14.2 µg/mL (≈ 3910 µM) and the “MIC (μmol), S. Aureus (ATCC 6538)” value was 3914.3 µmol. Moreover, in [2], the “MIC, μg/mL ± SE, P. Aeruginosa (ATCC 15692)” value is 4.8 ± 0.2 µg/mL (≈ 15 µM) and the “MIC (μmol), P. Aeruginosa (ATCC 15692)” value is 15.0 µmol.

The values are drawn from article PMC8880098, “Synthesis, Antibacterial Evaluation, and Computational Studies of a Diverse Set of Linezolid Conjugates” (Pharmaceuticals, 2022).
